Test results as given in US12036229B2, “Use of phosphorylated heptose compounds” (NATIONAL RESEARCH COUNCIL OF CANADA, priority 2017, dated 2024).

Test system: CT26 cells (colon carcinoma from BALB/c mice)
Experiment: CT26 tumour model in BALB/c mice
Type: in vivo
Details: intraperitoneal; HMP 200 μg per day D10, D11, D12; LPS 1x at 3 mg/kg; 11 day period, vs PBS; FIG. 14c

Substance: lipopolysaccharide [LPS]
- change in tumour volume relative to day 10 (rate of tumour growth): significantly reduced the rate of tumour growth
